Results from PubChem BioAssay AID256 (DTP/NCI, 2004).
“And” between values parts separate entries of the source, which are not always exact repeats. Equal entries are not always repeated. Inconclusive results and toxic doses are left out.

Tested on: CD2F1 mice, L1210 leukemia ip, survival T/C
Assay: NCI In Vivo Anticancer Drug Screen. Data for tumor model L1210 Leukemia (intraperitoneal) in CD2F1 (CDF1) mice
Settings: higher = longer survival
In short: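 Antitumor effect is scored in animals hosting a serially transplanted tumor. Values compare compound-dosed animals against vehicle-only controls as a simple quotient.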

CN1N=C(N)c2cn(C3OC(COP(=O)(O)O)C(O)C3O)c3ncnc1c23 (stereo not drawn)
T/C (endpoint: mean survival time, dose: 6.25 mg/kg/injection, schedule: Q01DX009 (ip), vehicle: water): 123 % of control
T/C (endpoint: mean survival time, dose: 7.81 mg/kg/injection, schedule: Q01DX005 (iv), vehicle: water): 109 % of control
T/C (endpoint: mean survival time, dose: 10.0 mg/kg/injection, schedule: Q01DX005 (ip), vehicle: water): 150 % of control
T/C (endpoint: mean survival time, dose: 11.73 mg/kg/injection, schedule: Q01DX005 (iv), vehicle: water): 112 % of control
T/C (endpoint: mean survival time, dose: 12.5 mg/kg/injection, schedule: Q01DX009 (ip), vehicle: water): 155 % of control
T/C (endpoint: mean survival time, dose: 15.63 mg/kg/injection, schedule: Q01DX005 (iv), vehicle: water): 114 % of control
T/C (endpoint: mean survival time, dose: 20.0 mg/kg/injection, schedule: Q01DX005 (ip), vehicle: water): 152 % of control
T/C (endpoint: mean survival time, dose: 23.45 mg/kg/injection, schedule: Q01DX005 (iv), vehicle: water): 119 % of control
T/C (endpoint: mean survival time, dose: 23.45 mg/kg/injection, schedule: Q01DX009 (ip), vehicle: water): 153 % of control
T/C (endpoint: mean survival time, dose: 31.25 mg/kg/injection, schedule: Q01DX009 (ip), vehicle: water): 159 % of control
T/C (endpoint: mean survival time, dose: 40.0 mg/kg/injection, schedule: Q01DX005 (ip), vehicle: water): 157 % of control and 163 % of control
T/C (endpoint: mean survival time, dose: 46.9 mg/kg/injection, schedule: Q01DX005 (iv), vehicle: water): 151 % of control
T/C (endpoint: mean survival time, dose: 46.9 mg/kg/injection, schedule: Q01DX009 (ip), vehicle: water): 156 % of control and 174 % of control
T/C (endpoint: mean survival time, dose: 62.5 mg/kg/injection, schedule: Q01DX005 (iv), vehicle: water): 157 % of control
T/C (endpoint: mean survival time, dose: 62.5 mg/kg/injection, schedule: Q01DX009 (ip), vehicle: water): 161 % of control
T/C (endpoint: mean survival time, dose: 80.0 mg/kg/injection, schedule: Q01DX005 (ip), vehicle: water): 163 % of control and 195 % of control
T/C (endpoint: median survival time, dose: 6.25 mg/kg/injection, schedule: Q03HX024 (ip), vehicle: alkali diluted with water): 156 % of control
T/C (endpoint: median survival time, dose: 12.5 mg/kg/injection, schedule: Q03HX024 (ip), vehicle: alkali diluted with water): 97 % of control
T/C (endpoint: median survival time, dose: 24.0 mg/kg/injection, schedule: Q01DX005 (ip), vehicle: water): 150 % of control
T/C (endpoint: median survival time, dose: 24.0 mg/kg/injection, schedule: Q01DX009 (ip), vehicle: water): 157 % of control
T/C (endpoint: median survival time, dose: 25.0 mg/kg/injection, schedule: Q01DX001 (ip), vehicle: alkali diluted with water): 97 % of control
T/C (endpoint: median survival time, dose: 25.0 mg/kg/injection, schedule: Q01DX009 (ip), vehicle: alkali diluted with water): 168 % of control
T/C (endpoint: median survival time, dose: 25.0 mg/kg/injection, schedule: Q04DX003 (ip), vehicle: alkali diluted with water): 151 % of control
T/C (endpoint: median survival time, dose: 35.0 mg/kg/injection, schedule: Q01DX001 (ip), vehicle: water): 120 % of control
T/C (endpoint: median survival time, dose: 35.0 mg/kg/injection, schedule: Q01DX005 (oral), vehicle: water): 95 % of control
T/C (endpoint: median survival time, dose: 35.0 mg/kg/injection, schedule: Q01DX009 (ip), vehicle: water): 167 % of control
T/C (endpoint: median survival time, dose: 35.0 mg/kg/injection, schedule: Q01DX009 (oral), vehicle: water): 108 % of control
T/C (endpoint: median survival time, dose: 50.0 mg/kg/injection, schedule: Q01DX001 (ip), vehicle: alkali diluted with water): 96 % of control
T/C (endpoint: median survival time, dose: 50.0 mg/kg/injection, schedule: Q01DX009 (ip), vehicle: alkali diluted with water): 187 % of control
T/C (endpoint: median survival time, dose: 50.0 mg/kg/injection, schedule: Q04DX003 (ip), vehicle: alkali diluted with water): 151 % of control
T/C (endpoint: median survival time, dose: 53.0 mg/kg/injection, schedule: Q01DX001 (ip), vehicle: water): 112 % of control
T/C (endpoint: median survival time, dose: 53.0 mg/kg/injection, schedule: Q01DX001 (oral), vehicle: water): 105 % of control
T/C (endpoint: median survival time, dose: 53.0 mg/kg/injection, schedule: Q01DX005 (iv), vehicle: water): 155 % of control
T/C (endpoint: median survival time, dose: 53.0 mg/kg/injection, schedule: Q01DX005 (oral), vehicle: water): 101 % of control
T/C (endpoint: median survival time, dose: 53.0 mg/kg/injection, schedule: Q01DX009 (ip), vehicle: water): 182 % of control
T/C (endpoint: median survival time, dose: 53.0 mg/kg/injection, schedule: Q01DX009 (oral), vehicle: water): 101 % of control
T/C (endpoint: median survival time, dose: 80.0 mg/kg/injection, schedule: Q01DX001 (oral), vehicle: water): 103 % of control
T/C (endpoint: median survival time, dose: 80.0 mg/kg/injection, schedule: Q01DX005 (ip), vehicle: water): 155 % of control
T/C (endpoint: median survival time, dose: 80.0 mg/kg/injection, schedule: Q01DX005 (iv), vehicle: water): 158 % of control
T/C (endpoint: median survival time, dose: 80.0 mg/kg/injection, schedule: Q01DX005 (oral), vehicle: water): 102 % of control
T/C (endpoint: median survival time, dose: 80.0 mg/kg/injection, schedule: Q01DX009 (ip), vehicle: water): 185 % of control
T/C (endpoint: median survival time, dose: 80.0 mg/kg/injection, schedule: Q01DX009 (oral), vehicle: water): 106 % of control
T/C (endpoint: median survival time, dose: 100.0 mg/kg/injection, schedule: Q01DX001 (ip), vehicle: alkali diluted with water): 96 % of control
T/C (endpoint: median survival time, dose: 100.0 mg/kg/injection, schedule: Q01DX009 (ip), vehicle: alkali diluted with water): 200 % of control
T/C (endpoint: median survival time, dose: 100.0 mg/kg/injection, schedule: Q01DX009 (oral), vehicle: alkali diluted with water): 104 % of control
T/C (endpoint: median survival time, dose: 100.0 mg/kg/injection, schedule: Q04DX003 (ip), vehicle: alkali diluted with water): 162 % of control
T/C (endpoint: median survival time, dose: 120.0 mg/kg/injection, schedule: Q01DX001 (oral), vehicle: water): 105 % of control
T/C (endpoint: median survival time, dose: 120.0 mg/kg/injection, schedule: Q01DX005 (ip), vehicle: water): 161 % of control
T/C (endpoint: median survival time, dose: 120.0 mg/kg/injection, schedule: Q01DX005 (oral), vehicle: water): 105 % of control
T/C (endpoint: median survival time, dose: 120.0 mg/kg/injection, schedule: Q01DX009 (ip), vehicle: water): 150 % of control
T/C (endpoint: median survival time, dose: 120.0 mg/kg/injection, schedule: Q01DX009 (oral), vehicle: water): 103 % of control
T/C (endpoint: median survival time, dose: 180.0 mg/kg/injection, schedule: Q01DX001 (oral), vehicle: water): 101 % of control
T/C (endpoint: median survival time, dose: 180.0 mg/kg/injection, schedule: Q01DX005 (oral), vehicle: water): 107 % of control
T/C (endpoint: median survival time, dose: 180.0 mg/kg/injection, schedule: Q01DX009 (oral), vehicle: water): 102 % of control
T/C (endpoint: median survival time, dose: 200.0 mg/kg/injection, schedule: Q01DX009 (oral), vehicle: alkali diluted with water): 103 % of control
T/C (endpoint: median survival time, dose: 200.0 mg/kg/injection, schedule: Q04DX003 (ip), vehicle: alkali diluted with water): 150 % of control
T/C (endpoint: median survival time, dose: 270.0 mg/kg/injection, schedule: Q01DX001 (oral), vehicle: water): 101 % of control
T/C (endpoint: median survival time, dose: 270.0 mg/kg/injection, schedule: Q01DX005 (oral), vehicle: water): 110 % of control
T/C (endpoint: median survival time, dose: 270.0 mg/kg/injection, schedule: Q01DX009 (oral), vehicle: water): 112 % of control
T/C (endpoint: median survival time, dose: 400.0 mg/kg/injection, schedule: Q01DX009 (oral), vehicle: alkali diluted with water): 114 % of control
T/C (endpoint: median survival time, dose: 405.0 mg/kg/injection, schedule: Q01DX001 (oral), vehicle: water): 102 % of control
T/C (endpoint: median survival time, dose: 800.0 mg/kg/injection, schedule: Q01DX009 (oral), vehicle: alkali diluted with water): 120 % of control
T/C (endpoint: median survival time, dose: 1600.0 mg/kg/injection, schedule: Q01DX009 (oral), vehicle: alkali diluted with water): 122 % of control

O=C(NCc1ccccc1)C(=O)NCc1ccccc1
T/C (endpoint: mean survival time, dose: 100.0 mg/kg/injection, schedule: Q04DX002 (ip), vehicle: saline with Tween-80): 90 % of control
T/C (endpoint: mean survival time, dose: 200.0 mg/kg/injection, schedule: Q04DX002 (ip), vehicle: saline with Tween-80): 87 % of control
T/C (endpoint: mean survival time, dose: 400.0 mg/kg/injection, schedule: Q04DX002 (ip), vehicle: saline with Tween-80): 90 % of control

CCC(C)CNCCO (stereo not drawn)
T/C (endpoint: mean survival time, dose: 100.0 mg/kg/injection, schedule: Q04DX003 (ip), vehicle: saline): 100 % of control
T/C (endpoint: mean survival time, dose: 200.0 mg/kg/injection, schedule: Q04DX003 (ip), vehicle: saline): 95 % of control

NC1=NN(c2ccccc2)CC1
T/C (endpoint: mean survival time, dose: 5.0 mg/kg/injection, schedule: Q01DX009 (ip), vehicle: saline with Tween-80): 96 % of control
T/C (endpoint: mean survival time, dose: 5.0 mg/kg/injection, schedule: Q04DX003 (ip), vehicle: saline with Tween-80): 94 % of control
T/C (endpoint: mean survival time, dose: 10.0 mg/kg/injection, schedule: Q01DX009 (ip), vehicle: saline with Tween-80): 96 % of control
T/C (endpoint: mean survival time, dose: 10.0 mg/kg/injection, schedule: Q04DX003 (ip), vehicle: saline with Tween-80): 91 % of control
T/C (endpoint: mean survival time, dose: 20.0 mg/kg/injection, schedule: Q01DX009 (ip), vehicle: saline with Tween-80): 106 % of control
T/C (endpoint: mean survival time, dose: 20.0 mg/kg/injection, schedule: Q04DX003 (ip), vehicle: saline with Tween-80): 86 % of control

NC(CS)=NCCc1nc2ccccc2[nH]1
T/C (endpoint: mean survival time, dose: 6.25 mg/kg/injection, schedule: Q04DX002 (ip), vehicle: saline): 96 % of control
T/C (endpoint: mean survival time, dose: 12.5 mg/kg/injection, schedule: Q04DX002 (ip), vehicle: saline): 93 % of control
T/C (endpoint: mean survival time, dose: 25.0 mg/kg/injection, schedule: Q04DX002 (ip), vehicle: saline): 96 % of control and 104 % of control
T/C (endpoint: mean survival time, dose: 50.0 mg/kg/injection, schedule: Q04DX002 (ip), vehicle: saline): 106 % of control
